From article PMC11442653, “Treating ICB-resistant cancer by inhibiting PD-L1 via DHHC3 degradation induced by cell penetrating peptide-induced chimera conjugates” (Cell Death & Disease, 2024)

What was measured:
C33A cells [1] = assay: Ki67 proliferation assay with cisplatin; assay type: cell-based, human; conditions: cisplatin vs control
C33A cells [2] = assay: TUNEL apoptosis assay with cisplatin; assay type: cell-based, human; conditions: cisplatin vs control
Protocol: Cells were seeded in 6-well plates at a density between 30% and 50%. Following complete adhesion, various treatments were applied: PBS alone, cisplatin, or a combination of cisplatin and PCC16 for 4 h each. After incubation, the medium was replaced and the cells were rinsed with PBS. The cells were fixed with 4% paraformaldehyde for half an hour and washed again with PBS. To permeabilize the cells, PBS mixed with 0.3% Triton X-100 was added and the cells were incubated at room temperature for 5 min. A specific quantity of the terminal deoxynucleotidyl transferase dUTP nick end labeling (TUNEL) assay reagent was prepared and mixed. After washing the cells on coverslips with PBS twice, 50 µL of the TUNEL reagent was applied to each cell sample. These samples were then incubated at 37 °C in a dark environment for 60 min. The samples were then washed three times with PBS and stained with DAPI for 3–5 min, followed by washing with PBS twice. The final step involved mounting the samples for observation under a fluorescence microscope using an excitation wavelength range of 450–500 nm and an emission wavelength range of 515–565 nm to detect green fluorescence.

C33A cells [3] = assay: Colony formation assay with cisplatin; assay type: cell-based, human; conditions: vs control; 4 h treatment, then 7 days
Protocol: The procedure commenced by counting and seeding cancer cells into a 6-well plate, with each well containing approximately 1000 cells. Following complete cell adhesion, various treatments were applied to each well, including a control PBS solution, cisplatin alone, and a combination of cisplatin and PCC16. This was followed by a 4-h incubation period. Subsequently, the initial culture medium was discarded, and the cells were incubated for additional 7 days in a fresh complete medium, which was renewed every 2–3 days. The cultivation process was halted on the formation of visible colonies detectable under a microscope, with each colony comprising approximately 60–80 cells. Double washing with PBS was conducted, followed by a 20-min fixation of the cells using a tissue cell fixative. After fixation, the cells were washed twice with PBS and stained with 0.1% crystal violet for 20 min. After rinsing the excess stain with deionized water, the plates were air-dried at ambient temperature. The colonies were photographed for documentation, and the cell colony counts in each treatment group was recorded.

4T1 cells [4] = assay: 4T1 xenograft model in BALB/c mice, antitumor effect; assay type: in vivo, mouse
Protocol: Female BALB/c mice, aged 6–8 weeks and weighing approximately 20 g were procured from the Wuhan Experimental Animal Center, Hubei, China. In vivo studies assessing antitumor effects were performed according to the protocols of the Experimental Animal Welfare and Ethics Committee at Wuhan University. These studies complied with the National Research Council’s guidelines detailed in the “Guide for the Care and Use of Laboratory Animals.” Cells were harvested in an optimal growth phase with approximately 80% confluence, centrifuged to discard the supernatant, and 2 million 4T1 cells were resuspended in 125 µL of PBS. This cell suspension was subcutaneously injected into the dorsal flank of mice to initiate the tumor model. Tumor dimensions were regularly measured using calipers, and the volume was calculated using the following formula: (length × width²)/2. When the tumor volume was 80–100 mm³, the tumor-bearing mice were allocated for further in vivo investigation. […] The treatments were administered via tail vein injections on days 0, 2, 4, 6, 8, 10, and 12. Throughout the experiment, both the weight of the mice and tumor volume were recorded. On day 18, the mice were euthanized via cervical dislocation. The tumors were excised for measurement, photographic documentation, and weighing.

4T1 cells [5] = assay: Activity against ICB-resistant 4T1 tumors in vitro (PD-L1 blockers); assay type: cell-based, mouse

Row | Structure (SMILES) | cell proliferation (Ki67) (C33A cells [1]) | apoptosis (C33A cells [2]) | number of C33A colonies (C33A cells [3]) | effect on ICB-resistant tumors in vivo (4T1 cells [4]; 4T1) | average tumor weight, percent of control group (4T1 cells [4]; 4T1 xenograft, BALB/c mice, tail vein days 0, 2, 4, 6, 8, 10, 12, n = 4) | tumor weight and size (4T1 cells [4]; 4T1 xenograft, vs control, n = 4) | effect on ICB-resistant tumors in vitro (4T1 cells [5])
1 | N.N.[Cl][Pt][Cl] [cisplatin] | cell proliferation decreased | apoptosis increased | decreased |  |  |  | 
2 | Cc1c(COc2ccc(CN3CCCCC3C(=O)O)cc2Br)cccc1-c1ccccc1 (stereo not shown) [BMS-8] |  |  |  | no significant effect on ICB-resistant tumors | 90.8% | slight decrease in weight and size | no significant effect on ICB-resistant tumors
